What was measured:
N2a cells = type: cell-based, Murine
N2aPK1 cells = type: cell-based, murine
[1] = test system: Reporter T cells containing an integrated loxP-STOP-loxP GFP expression gene; type: cell-based
cells = details: cited from earlier work

Molecule | cell surface association of rPrP^C-546 (N2a cells) | cellular uptake of rPrP^C-546 (N2a cells) | uptake of rPrP^C(23-90)-Cre into cells and subsequent DNA recombination (GFP-positive cells) [1] | further results
CCN(c1nc(N)c(C(=O)NC(=N)N)nc1Cl)C(C)C [EIPA] | did not block | prevented the cellular uptake | – | PrP^C to PrP^Sc conversion (proteinase K resistant PrP) (N2aPK1 cells): concentration-dependent inhibition
C=C1[C@@H](C)[C@H]2[C@H](Cc3ccccc3)NC(=O)[C@]23[C@H](OC(C)=O)/C=C/[C@@](C)(O)C(=O)[C@@H](C)C/C=C/[C@H]3[C@@H]1O [cytochalasin D] | did not block | prevented the cellular uptake | – | –
C[C@@H]1[C@H](O)[C@@H](C)/C=C/C=C/CC/C=C/C=C/C=C/C=C/C(O[C@H]2O[C@H](C)[C@@H](O)[C@H](N)[C@@H]2O)CC2O[C@](O)(CC(O)C(O)CCC(O)CC(O)CC(O)CC(=O)O[C@H]1C)CC(O)C2C(=O)O (stereo partly shown) [nystatin] | – | – | – | internalization of rPrP^C-Alexa546 (N2a cells): prevented
chondroitin sulfate B | – | – | inhibited protein uptake into cells and subsequent DNA recombination in a dose-dependent manner | –
heparin | – | – | inhibited protein uptake into cells and subsequent DNA recombination in a dose-dependent manner | surface binding of rPrP^C-Alexa546 (N2a cells): prevented; PrP^C infection of cells (cells): can prevent
